Assay results published in patent US9481673B2, “6-alkynyl-pyridine derivatives” (Boehringer Ingelheim International GmbH, priority 2014, dated 2016).
≈ marks a conversion by molar mass, not a printed value.

Legend:
[1] = Solubility measurement (DMSO solution precipitation method); format: physicochemical; settings: aqueous buffer, kinetic from dmso stock; for solubility kinetic at 24 h: (S)-isomers, McIlvaine buffer pH 6.8, 24 h shaking at ambient temperature, read-out: Sol pH 6.8; for solubility at 24 h: McIlvaine buffer, measured examples from WO 2013/127729 (Table 1), pH 6.8
[2] = biological target: P450 2C19 (Homo sapiens (Human), UniProt P33261); assay: Cytochrome P450 isoenzyme inhibition assay, hydroxylation of Mephenytoin; format: in vitro ADME
[3] = biological target: P450 2C9 (Homo sapiens (Human), UniProt P11712); assay: Cytochrome P450 isoenzyme inhibition assay, hydroxylation of Diclofenac; format: in vitro ADME
[4] = biological target: P450 2C8 (Homo sapiens (Human), UniProt P10632); assay: Cytochrome P450 isoenzyme inhibition assay, deethylation of Amodiaquine; format: in vitro ADME
[5] = biological target: P450 3A4 (Homo sapiens (Human), UniProt P08684); assay: Cytochrome P450 isoenzyme inhibition assay, hydroxylation of Midazolam; format: in vitro ADME
[6] = biological target: cIAP1 BIR3 (Homo sapiens (Human), UniProt Q13490); assay: cIAP1 BIR3 binding assay (DELFIA), BIR3-SMAC peptide interaction; settings: (S)-isomers; BIR3 domain 10 nM, SMAC peptide 10 nM; read-out: cIAP1 BIR-3 IC50
[7] = biological target: P450 2D6 (Homo sapiens (Human), UniProt P10635); assay: Cytochrome P450 isoenzyme inhibition assay, demethylation of Dextromethorphan; format: in vitro ADME; settings: measured examples from WO 2013/127729 (Table 1)
[8] = (S)-isomers, human liver microsomes, 37° C.
[9] = measured examples from WO 2013/127729 (Table 1)

SMILES	solubility kinetic at 24 h [1] [µg/mL]	IC50 [2, 8] [µM]	IC50 [3, 8] [µM]	IC50 [4, 8] [µM]	IC50 [5, 8] [µM]	IC50 [6] [µM]	IC50 [2, 9] [µM]	IC50 [3, 9] [µM]	IC50 [7] [µM]	IC50 [4, 9] [µM]	IC50 [5, 9] [µM]	solubility at 24 h [1] [µg/mL]
CN[C@@H](C)C(=O)Nc1ccc(-c2c(-c3cccnc3OC)nc3cc(C)ccn23)c(C#Cc2ccc3c(C)nccc3c2)n1 [(S)-1, (2S)-N-{5-[2-(2-methoxypyridin-3-yl)-7-methylimidazo[1,2-a]pyridin-3-yl]-6-[2-(1-methylisoquinolin-6-yl)ethynyl]pyridin-2-yl}-2-(methyl-amino)propanamide]	35 (≈ 60.2 µM)	> 50	38	11	> 50	0.001	–	–	–	–	–	–
CN[C@@H](C)C(=O)Nc1ccc(-c2c(-c3cnn(C)c3)nc3cc(C)ccn23)c(C#Cc2ccc3c(C)nccc3c2)n1 [(S)-3, (2S)-N-{5-[7-methyl-2-(1-methyl-1H-pyrazol-4-yl)-imidazo[1,2-a]pyridin-3-yl]-6-[2-(1-methyl-isoquinolin-6-yl)-ethynyl]pyridin-2-yl}-2-(methylamino)-propanamide]	1 (≈ 1.8 µM)	> 50	> 50	14	> 50	0.001	–	–	–	–	–	–
CN[C@@H](C)C(=O)Nc1ccc(-c2c(-c3cncn3C)nc3cc(C)ccn23)c(C#Cc2ccc3c(C)nccc3c2)n1 [(S)-4, (2S)-N-{5-[7-methyl-2-(1-methyl-1H-imidazol-5-yl)-imidazo[1,2-a]pyridin-3-yl]-6-[2-(1-methyl-isoquinolin-6-yl)-ethynyl]pyridin-2-yl}-2-(methylamino)-propanamide]	39 (≈ 70.3 µM)	36	27	9.8	> 50	0.001	–	–	–	–	–	–
CN[C@@H](C)C(=O)Nc1ccc(-c2c(-c3cccnc3C)nc3cc(C)ccn23)c(C#Cc2ccc3c(C)nccc3c2)n1 [(S)-5, (2S)-N-{5-[7-methyl-2-(2-methylpyridin-3-yl)imidazo[1,2-a]-pyridin-3-yl]-6-[2-(1-methylisoquinolin-6-yl)ethynyl]pyridin-2-yl}-2-(methylamino)-propanamide]	< 1	> 50	> 50	1.3	> 50	0.002	–	–	–	–	–	–
CN[C@@H](C)C(=O)Nc1ccc(-c2c(-c3ccc(C)nc3)nc3cc(C)ccn23)c(C#Cc2ccc3c(C)nccc3c2)n1 [(S)-6, (2S)-N-{5-[7-methyl-2-(6-methylpyridin-3-yl)imidazo[1,2-a]-pyridin-3-yl]-6-[2-(1-methylisoquinolin-6-yl)ethynyl]pyridin-2-yl}-2-(methylamino)-propanamide]	1 (≈ 1.77 µM)	> 50	> 50	25	> 50	0.001	–	–	–	–	–	–
CN[C@@H](C)C(=O)Nc1ccc(-c2c(-c3cnc(C)nc3)nc3cc(C)ccn23)c(C#Cc2ccc3c(C)nccc3c2)n1 [(S)-7, (2S)-N-{5-[7-methyl-2-(2-methylpyrimidin-5-yl)imidazo[1,2-a]-pyridin-3-yl]-6-[2-(1-methylisoquinolin-6-yl)ethynyl]pyridin-2-yl}-2-(methylamino)-propanamide]	< 1	> 50	> 50	> 50	> 50	0.001	–	–	–	–	–	–
CN[C@@H](C)C(=O)Nc1ccc(-c2c(-c3ccnc(OC)c3)nc3cc(C)ccn23)c(C#Cc2ccc3c(C)nccc3c2)n1 [(S)-8, (2S)-N-{5-[2-(2-methoxypyridin-4-yl)-7-methylimidazo[1,2-a]pyridin-3-yl]-6-[2-(1-methylisoquinolin-6-yl)ethynyl]pyridin-2-yl}-2-(methyl-amino)propanamide]	< 1	38	> 50	1.6	> 50	0.001	–	–	–	–	–	–
CN[C@@H](C)C(=O)Nc1ccc(-c2c(-c3ccc(OC)nc3)nc3cc(C)ccn23)c(C#Cc2ccc3c(C)nccc3c2)n1 [(S)-9, (2S)-N-{5-[2-(6-methoxypyridin-3-yl)-7-methylimidazo[1,2-a]pyridin-3-yl]-6-[2-(1-methylisoquinolin-6-yl)ethynyl]pyridin-2-yl}-2-(methyl-amino)propanamide]	2 (≈ 3.44 µM)	> 50	> 50	15	> 50	0.001	–	–	–	–	–	–
CN[C@@H](C)C(=O)Nc1ccc(-c2c(-c3cccnc3OC)nc3cc(C)ccn23)c(C#Cc2ccc3c(ccc(=O)n3C)c2)n1 [(S)-10, (2S)-N-{5-[2-(2-methoxypyridin-3-yl)-7-methylimidazo[1,2-a]pyridin-3-yl]-6-[2-(1-methyl-2-oxo-1,2-dihydroquinolin-6-yl)-ethynyl]pyridin-2-yl}-2-(methylamino)-propanamide]	35 (≈ 58.6 µM)	> 50	–	9.3	> 50	0.001	–	–	–	–	–	–
CN[C@@H](C)C(=O)Nc1ccc(-c2c(-c3ccnc(C)c3)nc3cc(C)ccn23)c(C#Cc2ccccc2)n1 [(S)-11, (2S)-N-{5-[7-methyl-2-(2-methylpyridin-4-yl)imidazo[1,2-a]-pyridin-3-yl]-6-(2-phenylethynyl)pyridin-2-yl}-2-(methyl-amino)propanamide]	–	14	> 50	15	46	0.001	–	–	–	–	–	–
CN[C@@H](C)C(=O)Nc1ccc(-c2c(-c3cnc(C)nc3)nc3cc(C)ccn23)c(C#Cc2ccc3c(ccc(=O)n3C)c2)n1 [(S)-12, (2S)-N-{5-[7-methyl-2-(2-methylpyrimidin-5-yl)imidazo[1,2-a]-pyridin-3-yl]-6-[2-(1-methyl-2-oxo-1,2-dihydroquinolin-6-yl)-ethynyl]pyridin-2-yl}-2-(methylamino)-propanamide]	< 1	> 50	> 50	> 50	> 50	0.002	–	–	–	–	–	–
CN[C@@H](C)C(=O)Nc1ccc(-c2c(-c3ccnc(OC)c3)nc3cc(C)ccn23)c(C#Cc2ccc3c(ccc(=O)n3C)c2)n1 [(S)-13, (2S)-N-{5-[2-(2-methoxypyridin-4-yl)-7-methylimidazo[1,2-a]pyridin-3-yl]-6-[2-(1-methyl-2-oxo-1,2-dihydroquinolin-6-yl)-ethynyl]pyridin-2-yl}-2-(methylamino)-propanamide]	< 1	–	> 50	4.5	> 50	0.001	–	–	–	–	–	–
CN[C@@H](C)C(=O)Nc1ccc(-c2c(-c3ccc(OC)nc3)nc3cc(C)ccn23)c(C#Cc2ccc3c(ccc(=O)n3C)c2)n1 [(S)-14, (2S)-N-{5-[2-(6-methoxypyridin-3-yl)-7-methylimidazo[1,2-a]pyridin-3-yl]-6-[2-(1-methyl-2-oxo-1,2-dihydroquinolin-6-yl)-ethynyl]pyridin-2-yl}-2-(methylamino)-propanamide]	< 1	> 50	> 50	> 50	> 50	0.001	–	–	–	–	–	–
CN[C@@H](C)C(=O)Nc1ccc(-c2c(-c3cccnc3OC)nc3cc(Cl)ccn23)c(C#Cc2ccc3c(C)nccc3c2)n1 [(S)-15, (2S)-N-{5-[7-chloro-2-(2-methoxypyridin-3-yl)imidazo[1,2-a]-pyridin-3-yl]-6-[2-(1-methylisoquinolin-6-yl)ethynyl]pyridin-2-yl}-2-(methylamino)-propanamide]	20 (≈ 33.2 µM)	32	19	2.2	> 50	0.002	–	–	–	–	–	–
CN[C@@H](C)C(=O)Nc1ccc(-c2c(-c3cccnc3OC)nc3ccccn23)c(C#Cc2ccc3c(C)nccc3c2)n1 [(S)-16, (2S)-N-{5-[2-(2-methoxypyridin-3-yl)imidazo[1,2-a]-pyridin-3-yl]-6-[2-(1-methylisoquinolin-6-yl)ethynyl]pyridin-2-yl}-2-(methylamino)-propanamide]	17 (≈ 29.9 µM)	> 50	21	3.4	> 50	–	–	–	–	–	–	–
CNC(C)C(=O)Nc1ccc(-c2c(-c3ccncc3)nc3cc(C)ccn23)c(C#Cc2ccc3nc(C)ccc3c2)n1 (centres unmarked) [Ex 64, reference compound]	–	–	–	–	–	–	4.3	0.4	5.2	0.5	2.1	–
CNC(C)C(=O)Nc1ccc(-c2c(-c3ccncc3)nc3cc(C)ccn23)c(C#Cc2ccc3c(ccc(=O)n3C)c2)n1 (centres unmarked) [Ex 81, reference compound]	–	–	–	–	–	–	2.8	0.9	3.4	1.2	4	8 (≈ 14.1 µM)
CNC(C)C(=O)Nc1ccc(-c2c(-c3ccncc3)nc3cc(C)ccn23)c(C#Cc2ccc(-c3ccon3)cc2)n1 (centres unmarked) [Ex 82, reference compound]	–	–	–	–	–	–	4.8	0.4	2.2	0.3	2.3	–
CNC(C)C(=O)Nc1ccc(-c2c(-c3ccncc3)nc3cc(C)ccn23)c(C#Cc2ccc3c(c2)OCC(=O)N3C)n1 (centres unmarked) [Ex 94, reference compound]	–	–	–	–	–	–	2.9	0.7	3.3	4.9	> 50	–
CNC(C)C(=O)Nc1ccc(-c2c(-c3ccncc3)nc3cc(C)ccn23)c(C#Cc2ccccc2)n1 (centres unmarked) [Ex 185, reference compound]	–	–	–	–	–	–	16	4.8	2.7	1.7	3	60 (≈ 123 µM)
